Experimental findings from article PMC5000617, “Antiproliferative and Pro-Apoptotic Effect of Novel Nitro-Substituted Hydroxynaphthanilides on Human Cancer Cell Lines” (International Journal of Molecular Sciences, 2016) are described below.

Data set [1] has as its system MCF-7 cells. In words: WST-1 cell proliferation assay, MCF-7. In kind it is cell-based, human. To be noted: for IC50: Homo sapiens, MCF7, WST-1, 24 h, 0.5-20 μM, mean ± SD; for effect on cell proliferation: MCF-7, 0.5-20 μM, 24 h. Here is the method: (§1) Initially, we examined the effect of six nitro-substituted hydroxynaphthanilides on the proliferation of human leukaemia and breast carcinoma cell lines, using Water Soluble Tetrazolium Salts-1 (WST-1) assay. For such analyses, THP-1 and MCF-7 cells were treated with the compounds at concentrations ranging from 0.5 to 20 μM for 24 h. […] The inhibitory effect of 2 and 6 was statistically significant (p < 0.001) starting from the concentration of 2.5 and 5 μM in THP-1 and MCF-7 cells, respectively. From the concentration-response curves, the IC50 values were determined.
(§2) THP-1 human monocytic leukemia cell line, MCF-7 human breast adenocarcinoma cells and 3T3-L1 mouse embryonic fibroblast were purchased from the European Collection of Cell Cultures (ECACC, Salisbury, UK). Cells were routinely tested for the absence of mycoplasma (Hoechst 33258 staining method). THP-1 cells were maintained in RPMI 1640 culture medium containing 2 mM L-glutamine; MCF-7 and 3T3-L1 cells were cultured in DMEM medium. All of the culture media were supplemented with 10% heat-inactivated FBS and antibiotics (100 U/mL penicillin and 100 μg/mL streptomycin). Cells were maintained at 37 °C in a humidified atmosphere containing 5% CO2.
(§3) Cell proliferation was evaluated using Cell Proliferation Reagent WST-1 (2-(4-iodophenyl)-3-(4-nitrophenyl)-5-(2,4-disulfophenyl)-2H-tetrazolium) (Roche Diagnostics, Mannheim, Germany) according to the manufacturer´s instructions. THP-1 (5 × 10^4 cells/100 μL culture medium per well), MCF-7 cells (1 × 10^4 cells/100 μL per well), and 3T3-L1 (2.5 × 10^3 cells/100 μL per well) were cultured in 96-well plates in triplicate. The measurement was performed using Synergy 2 Multi-Mode Microplate Reader (BioTek, Winooski, VT, USA) after 24 h incubation of cells with tested compounds dissolved in DMSO and subsequently in RPMI 1640 to final concentration ranging 0.5–20 μM in the assays. Cell viability was assessed by dye exclusion test. THP-1 (2 × 10^5 cells/mL per well) and MCF-7 cells (8 × 10^4 cells/mL per well) were incubated in 24-well plates with the indicated concentrations of compounds for 24 h. The number of viable cells was determined using hemocytometer after their staining with a solution of erythrosin B (0.1% erythrosin B (w/v) in PBS). The assays were conducted in triplicate. The IC50 and LC50 values were calculated from fitted concentration-response curves using GraphPad Prism 5.00 software (GraphPad Software, San Diego, CA, USA).

Data set [2] in a line: Erythrosin B dye exclusion viability test, MCF-7. Type of data set: cell-based. The following applies: human, MCF-7 cells; erythrosin B exclusion test, 24 h, mean ± SD; read-out: MCF-7 LC50. Here is the method: (§4) Subsequently, for the comparison of the antiproliferative and cytotoxic effects we assessed the cell viability after 24 h treatment with compounds 1–6 in both tumour cell lines using the dye exclusion test.
as §2, §3

A short description of data set [3]: Erythrosin B dye exclusion viability test, THP-1. In kind it is cell-based. The following applies: human, THP-1 cells; erythrosin B exclusion test, 24 h, mean ± SD; read-out: THP-1 LC50. The protocol: as §4, §2, §3
For the next data set, the system named is 3T3-L1 cells. In words: WST-1 cell proliferation assay, 3T3-L1 non-tumour cells. In kind it is cell-based, mouse. To be noted: for IC50: Mus musculus, 3T3-L1, WST-1, 24 h, non-tumour cells, mean ± SD. Here is the method: as §2, §3
Data set [4] deals with THP-1 cells. The data set can be described thus: WST-1 cell proliferation assay, THP-1. Type of data set: cell-based, human. To be noted: for IC50: Homo sapiens, THP-1, WST-1, 24 h, 0.5-20 μM, mean ± SD; for effect on cell proliferation: THP-1, 0.5-20 μM, 24 h. Here is the method: as §1, §2, §3
Data set [5] deals with MCF-7 cells. The data set can be described thus: Erythrosin B dye exclusion viability test, MCF-7. Type of data set: cell-based. The following applies: MCF-7 cells. Here is the method: as §4, §2, §3
For data set [6], the system named is THP-1 cells. The data set can be described thus: Erythrosin B dye exclusion viability test, THP-1. Type of data set: cell-based. The protocol:
as §4, §2, §3

The subject of data set [7] is THP-1 cells. In words: Annexin V-FITC/PI apoptosis assay by flow cytometry, THP-1. Type of data set: cell-based, human. The following applies: mean. The protocol:
(§5) Staining of cells by Annexin V-FITC conjugate reflects the externalization of phosphatidylserine on the outer surface of the cell membrane as one of the early indicators of apoptosis.
(§6) Early and late stages of apoptosis were detected using Annexin V-FITC Kit—Apoptosis Detection Kit faccording to the manufacturer´s instructions. […] At each time-point of incubation (12, 18, and 24 h) the cells were washed with ice-cold PBS prior to being resuspended at a concentration of 5 × 10^6 cells/mL in a total volume of 100 μL of 1× binding buffer. Annexin V-FITC solution (final concentration 0.25 μg/mL) and PI (final concentration 12.5 μg/mL) were added to each sample; the cell suspension was kept on ice and incubated for 15 min in the dark. After that, the analysis was carried out by flow cytometry. The data were evaluated using Kaluza Flow Cytometry Analysis 1.2. Per sample, a total number of 2 × 10^4 cells were analysed.

Assay in data set [8]: as above
The following applies: human, THP-1 cells, THP-1, 5 μM, representative dot plot, read-out: quadrant I: viable cells. Type of data set: cell-based, human. Here is the method:
as §5, §6

For `O=C(Nc1ccccc1[N+](=O)[O-])c1cc2ccccc2cc1O` [Compound 1], the IC50 in the data set on MCF-7 cells [1], with 3T3-L1 cells and with THP-1 cells [4] was more than 20 µM in each case. In addition, the “effect on cell proliferation” value with MCF-7 cells [1] and with THP-1 cells [4] was “neither compound 1 nor 4 (both ortho-substituted derivatives) was able to induce the inhibition of cell growth” in each case. Also, the CC50 at 24 h in [2] and in data set [3] was more than 20 µM throughout.

For the molecule `O=C(Nc1ccc([N+](=O)[O-])cc1)c1cc2ccccc2cc1O` [Compound 3], the IC50 with MCF-7 cells [1] was found to be 1.65 ± 0.938 µM; in the data set on 3T3-L1 cells it was 4.41 ± 0.293 µM; with THP-1 cells [4], 1.05 ± 0.199 µM. Moreover, the “effect on cell proliferation” value with MCF-7 cells [1] was “inhibit cell growth in both cell lines in a dose-dependent manner”; in the data set with 3T3-L1 cells (3T3-L1, 24 h), “affected the proliferation of 3T3-L1 cells in a dose-dependent manner”; in the data set with THP-1 cells [4], “inhibit cell growth in both cell lines in a dose-dependent manner”. The figures for the CC50 at 24 h in data set [2] and in data set [3] were 12.9 ± 1.98 µM and 3.44 ± 1.21 µM, respectively. Further, the “LC50 in comparison with IC50” value in the data set with MCF-7 cells [5] is listed as “approximately seven-fold”. Moreover, in the data set with THP-1 cells [6], the “LC50 compared to IC50” value is 2–3 fold.

Regarding `O=C(Nc1ccccc1[N+](=O)[O-])c1c(O)ccc2ccccc12` [Compound 4], the half-maximal inhibitory concentration (IC50) in the data set with MCF-7 cells [1], in the data set with 3T3-L1 cells and in the data set with THP-1 cells [4] was more than 20 µM each time. The “effect on cell proliferation” value in the data set with MCF-7 cells [1] and in the data set with THP-1 cells [4] was “neither compound 1 nor 4 (both ortho-substituted derivatives) was able to induce the inhibition of cell growth” in each case. In addition, the CC50 at 24 h in data set [2] and in data set [3] was more than 20 µM in each case.

For `O=C(Nc1cccc([N+](=O)[O-])c1)c1c(O)ccc2ccccc12` [Compound 5], the IC50 with MCF-7 cells [1], in the data set with 3T3-L1 cells and in the data set with THP-1 cells [4] was more than 20 µM each time. The “effect on cell proliferation” value is “a 50% reduction in cell growth was not achieved” in the data set with MCF-7 cells [1] and “proliferation of THP-1 cells was not affected” in the data set with THP-1 cells [4]. Moreover, the CC50 at 24 h in [2] and in [3] was more than 20 µM each time.

For `CC[C@@]1(O)C(=O)OCc2c1cc1n(c2=O)Cc2cc3ccccc3nc2-1` [camptothecin, reference compound], in the data set with THP-1 cells [7] (THP-1, 5 µM, 12 h), the early apoptotic cells is listed as 21.28% and the late apoptotic cells stood at 24.10%. In the data set on THP-1 cells [7] (THP-1, 5 µM, 24 h), this molecule had an early apoptotic cells of 9.65% and a late apoptotic cells of 33.08%. Moreover, in [8] (12 h), the viability at 12 h, 5 µM is 55.8%. The viability at 18 h, 5 µM in [8] (18 h) amounted to 53.8%. Further, in [8] (24 h), the viability at 24 h, 5 µM worked out at 50.9%.

On to `N.N.[Cl][Pt][Cl]` [cisplatin, reference compound], for which, in the data set on THP-1 cells [7] (THP-1, 10 µg/mL, 24 h), the early apoptotic cells is recorded as 44.38%.
